Here are results for 3 compounds from publication PMC467089, “Click estradiol dimers with novel aromatic bridging units: synthesis and anticancer evaluation” (Journal of Enzyme Inhibition and Medicinal Chemistry, 2024).

For experiment [1], the system named is CCRF-CEM (childhood T-cell acute lymphoblastic leukaemia). In words: MTS cytotoxicity assay, CCRF-CEM. The class given is cell-based. The following applies: Homo sapiens, MTS assay, 72-h incubation, mean ± SD of 3 independent experiments, read-out: IC50 cytotoxic activity CCRF-CEM. The essentials:
(§1)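 MTS read-out after 72 h compound exposure at 37 °C. Cells plated the day before, treated with fourfold serial dilutions from DMSO stocks; duplicate wells, three independent experiments.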
Background: Formazan colour is commonly taken as a measure of viable cells.

The test system of experiment [2] is HCT116 (colorectal adenocarcinoma). Put plainly: MTS cytotoxicity assay, HCT116. The class given is cell-based. The following applies: Homo sapiens, HCT-116; MTS assay, 72-h incubation, mean ± SD of 3 independent experiments; read-out: IC50 cytotoxic activity HCT116. In a few lines:
as §1

Experiment [3] concerns HCT116p53−/− (p53 gene null variant of HCT116). In words: MTS cytotoxicity assay, HCT116p53−/−. Conditions: Homo sapiens, HCT-116; MTS assay, 72-h incubation, mean ± SD of 3 independent experiments; read-out: IC50 cytotoxic activity HCT116p53-. The class given is cell-based. The essentials:
as §1

The subject of experiment [4] is CCRF-CEM lymphoblasts. Put plainly: Cell cycle analysis by flow cytometry (propidium iodide). The class given is cell-based, human. The essentials:
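CCRF-CEM cells treated 24 h, then fixed in cold 70% ethanol, permeabilised with 0.25% Triton X-100 and stained with anti-phospho-histone H3 (Ser10). After 50 μg/mL RNase and propidium iodide, analysed by flow cytometry at 488 nm; sub-G1 events counted as non-viable with fragmented DNA.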
On the technique in general: In flow cytometry, cells or beads pass a laser one at a time.

Experiment [5] deals with CCRF-CEM lymphoblasts. In words: BrDU incorporation analysis (DNA synthesis). The class given is cell-based, human. The essentials:
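CCRF-CEM cells exposed to compounds for 24 h, pulse-labelled 30 min before harvest with 10 μM BrDU, ethanol-fixed, HCl-denatured, stained with anti-BrdU/FITC plus propidium iodide and RNase. Flow cytometry (488 nm) gives the percentage of BrDU-positive cells.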

For the next experiment, the system named is U2OS cells. In words: Immunofluorescence of microtubules / mitotic spindle. The class given is cell-based, human. Conditions: 10 µM, 24-h incubation. The source says:
In addition, the presence of aster-like tubulin structures indicated the failure in microtubule elongation (Figure 4, ED5). […] The observed intracellular effects of ED3 and ED5 are consistent with data from in vitro assembly assays and cell cycle analyses, thereby strongly supporting the proposed antimitotic mechanisms of these EDs. […] Importantly, cytotoxic IC50 values may vary depending on the duration of exposure to the drug. A more extended exposure could lead to a decrease in the IC50 value, and vice versa. This temporal factor could also contribute to the observed differential sensitivity among the cell lines. The detailed mechanism and the extent to which these cellular and molecular dynamics (MD) contribute to the observed phenomenon might necessitate further investigation and experimentation.
U2OS cells, cultivated on coverslips, underwent a PBS wash and were then fixed in a solution of 3% paraformaldehyde in a buffer containing 10 mM MES, 150 mM NaCl, 5 mM EGTA, 5 mM MgCl2, 5 mM glucose, adjusted to a pH of 6.1. The nuclei were made visible using Hoechst 33342. Subsequently, a 60-min blocking step with 5% goat serum in PBS (SpinChem, Seattle, WA) was followed by a 60-min incubation with α-tubulin (DM1A) mouse monoclonal antibody (Cell Signaling, Danvers, MA) in PBS supplemented with 1% BSA and 0.3% Triton X-100. Visualisation was achieved using Alexa Fluor-488 conjugated anti-mouse antibodies (Life Technologies, Carlsbad, CA). Between each step, the samples underwent a series of three 5-min washes with PBS. Finally, the samples were mounted using Vectashield Mounting Medium with DAPI and imaged utilising a Zeiss spinning disk confocal microscope equipped with CSU-X1 unit (Yokogawa, Musashino, Japan)[10].

For `COc1cc(Cn2cc([C@]3(O)CC[C@H]4[C@@H]5CCc6cc(O)ccc6[C@H]5CC[C@@]43C)nn2)cc(Cn2cc([C@]3(O)CC[C@H]4[C@@H]5CCc6cc(O)ccc6[C@H]5CC[C@@]43C)nn2)c1` [ED3, (17β,17′β)-17,17′-[(5-Methoxybenzene-1,3-diyl)bis(methanediyl-1H-1,2,3-triazole-1,4-diyl)]bisestra-1,3,5(10)-triene-3,17-diol], in experiment [1], the half-maximal inhibitory concentration (IC50) (in general, the concentration that inhibits the measured activity by half) turned out to be 380 ± 19 nM. In addition, the IC50 in experiment [2] turned out to be 470 ± 22 nM. In experiment [3], the IC50 is 450 ± 39 nM. For the same compound, in the experiment on CCRF-CEM lymphoblasts [4] (1×IC50, 24 h), the “<G1 (sub-G1, fragmented DNA), % of positive cells” value (“<G1 (sub-G1, fragmented DNA), %” for short) was determined as 33.51%; the “>G2/M (polyploidy), % of positive cells” value is given as 10.23%; the “G0/G1, % of positive cells” value came to 6.68%; the “G2/M, % of positive cells” value came out at 70.65%. In addition, in the experiment with CCRF-CEM lymphoblasts [4] (1×IC50, 24 h), the “S, % of positive cells” value was determined as 22.67%. Besides, in the experiment on CCRF-CEM lymphoblasts [4] (5×IC50, 24 h), the “<G1 (sub-G1, fragmented DNA), %” value turned out to be 53.18%; the “>G2/M (polyploidy), % of positive cells” value came to 9.8%; the “G0/G1, % of positive cells” value worked out at 6.89%; the “G2/M, % of positive cells” value is 71.67%. Besides, the “S, % of positive cells” value with CCRF-CEM lymphoblasts [4] (5×IC50, 24 h) is given as 21.44%. The “BrDU, % of positive cells” value with CCRF-CEM lymphoblasts [5] (1×IC50, 24 h) was 7.81%. Moreover, the “BrDU, % of positive cells” value in the experiment on CCRF-CEM lymphoblasts [5] (5×IC50, 24 h) worked out at 3.23%. Further, the “microtubule organisation in mitotic cells (in words)” value (from here on “microtubule organisation”) with U2OS cells is “disruption in microtubule organisation”.
Regarding `C[C@]12CC[C@@H]3c4ccc(O)cc4CC[C@H]3[C@@H]1CC[C@@]2(O)c1cn(Cc2cc(Cn3cc([C@]4(O)CC[C@H]5[C@@H]6CCc7cc(O)ccc7[C@H]6CC[C@@]54C)nn3)cc(OCCO)c2)nn1` [ED5, (17β,17′β)-17,17′-{[5-(2-Hydroxyethoxy)benzene-1,3-diyl]bis(methanediyl-1H-1,2,3-triazole-1,4-diyl)}bisestra-1,3,5(10)-triene-3,17-diol], the IC50 in experiment [1] turned out to be 710 ± 40 nM. In addition, the IC50 in experiment [2] was found to be 2020 ± 190 nM. For the same compound, the IC50 in experiment [3] was found to be 1980 ± 170 nM. Moreover, in the experiment with CCRF-CEM lymphoblasts [4] (1×IC50, 24 h), the “<G1 (sub-G1, fragmented DNA), %” value is 29.35%; the “>G2/M (polyploidy), % of positive cells” value was 6.16%; the “G0/G1, % of positive cells” value is on record as 35.53%; the “G2/M, % of positive cells” value amounted to 26.90%. In addition, the “S, % of positive cells” value in the experiment with CCRF-CEM lymphoblasts [4] (1×IC50, 24 h) was 37.57%. For the same compound, in the experiment on CCRF-CEM lymphoblasts [4] (5×IC50, 24 h), the “<G1 (sub-G1, fragmented DNA), %” value turned out to be 36.87%; the “>G2/M (polyploidy), % of positive cells” value is given as 10.73%; the “G0/G1, % of positive cells” value was found to be 13.42%; the “G2/M, % of positive cells” value was 61.48%. Besides, in the experiment with CCRF-CEM lymphoblasts [4] (5×IC50, 24 h), the “S, % of positive cells” value was found to be 25.09%. Besides, the “BrDU, % of positive cells” value in the experiment on CCRF-CEM lymphoblasts [5] (1×IC50, 24 h) stood at 32.15%. For the same compound, in the experiment on CCRF-CEM lymphoblasts [5] (5×IC50, 24 h), the “BrDU, % of positive cells” value was determined as 9.59%. Moreover, the “microtubule organisation” value in the experiment with U2OS cells is reported as “disruption in microtubule organisation”.
Regarding `C[C@]12CC[C@@H]3c4ccc(O)cc4CC[C@H]3[C@@H]1CC[C@@]2(O)c1cn(Cc2cccc(Cn3cc([C@]4(O)CC[C@H]5[C@@H]6CCc7cc(O)ccc7[C@H]6CC[C@@]54C)nn3)n2)nn1` [ED, reference compound], the figures for the IC50 in experiment [1], in experiment [2] and in experiment [3] were 490 ± 220 nM, 950 ± 110 nM and 900 ± 320 nM, respectively. Moreover, the “<G1 (sub-G1, fragmented DNA), %” value amounted to 11.51% in the experiment on CCRF-CEM lymphoblasts [4] (1×IC50, 24 h) and 22.78% in the experiment with CCRF-CEM lymphoblasts [4] (5×IC50, 24 h). In addition, the “>G2/M (polyploidy), % of positive cells” value with CCRF-CEM lymphoblasts [4] (1×IC50, 24 h) is on record as 11.2%; in the experiment on CCRF-CEM lymphoblasts [4] (5×IC50, 24 h), 23.1%. The “G0/G1, % of positive cells” value was found to be 33.48% in the experiment with CCRF-CEM lymphoblasts [4] (1×IC50, 24 h) and 2.50% in the experiment with CCRF-CEM lymphoblasts [4] (5×IC50, 24 h). In addition, the “G2/M, % of positive cells” value in the experiment on CCRF-CEM lymphoblasts [4] (1×IC50, 24 h) came to 25.59%; in the experiment on CCRF-CEM lymphoblasts [4] (5×IC50, 24 h), 59.11%. Besides, the “S, % of positive cells” value amounted to 40.93% with CCRF-CEM lymphoblasts [4] (1×IC50, 24 h) and 38.39% in the experiment with CCRF-CEM lymphoblasts [4] (5×IC50, 24 h). For the same compound, the “BrDU, % of positive cells” value turned out to be 19.54% with CCRF-CEM lymphoblasts [5] (1×IC50, 24 h) and 15.94% in the experiment on CCRF-CEM lymphoblasts [5] (5×IC50, 24 h). The “microtubule organisation” value with U2OS cells is reported as “disruption in microtubule organisation”.
